# Where two headings read alike, the source gives them in different places.
# What was measured:
# Test in all cases: stopped-flow CO2 hydration
# Assay type in all cases: biochemical
# hCA VB = biological target: T1, hCA VB (Homo sapiens, UniProt Q9Y2D0); settings: read-out: KI (μM)^a^,^b / hCA VB
# T1 construct: gene CA5B; recombinant, obtained in-house
# From the text: stopped-flow CO2 hydration on hCA VB
# hCA VA = biological target: T2, hCA VA (Homo sapiens, UniProt P35218); settings: read-out: KI (μM)^a^,^b / hCA VA
# T2 construct: gene CA5A; recombinant, obtained in-house
# From the text: stopped-flow CO2 hydration on hCA VA
# mCA XIII = biological target: T3, mCA XIII (Mus musculus, UniProt Q9D6N1); settings: read-out: KI (μM)^a^,^b / mCA XIII
# T3 construct: gene Ca13; recombinant, obtained in-house
# From the text: stopped-flow CO2 hydration on mCA XIII
# hCA VI = biological target: T4, hCA VI (Homo sapiens, UniProt P23280); settings: read-out: KI (μM)^a^,^b / hCA VI
# T4 construct: gene CA6; recombinant, obtained in-house
# From the text: stopped-flow CO2 hydration on hCA VI
# hCA III = biological target: T5, hCA III (Homo sapiens, UniProt P07451); settings: read-out: KI (μM)^a^,^b / hCA III
# T5 construct: gene CA3; recombinant, obtained in-house
# From the text: stopped-flow CO2 hydration on hCA III
# hCA IV = biological target: T6, hCA IV (Homo sapiens, UniProt P22748); settings: read-out: KI (μM)^a^,^b / hCA IV
# T6 construct: gene CA4; recombinant, obtained in-house
# From the text: stopped-flow CO2 hydration on hCA IV
# hCA IX = biological target: T7, hCA IX (Homo sapiens, UniProt Q16790)
# T7 construct: gene CA9; recombinant, obtained in-house
# From the text: stopped-flow CO2 hydration on hCA IX
# hCA XIV = biological target: T8, hCA XIV (Homo sapiens, UniProt Q9ULX7); settings: read-out: KI (μM)^a^,^b / hCA XIV
# T8 construct: gene CA14; recombinant, obtained in-house
# From the text: stopped-flow CO2 hydration on hCA XIV
# hCA II = biological target: T9, hCA II (Homo sapiens, UniProt P00918)
# T9 construct: gene CA2; recombinant, obtained in-house
# hCA XII = biological target: T10, hCA XII (Homo sapiens, UniProt O43570)
# T10 construct: gene CA12; recombinant, obtained in-house
# hCA VII = biological target: T11, hCA VII (Homo sapiens, UniProt P43166); settings: read-out: KI (μM)^a^,^b / hCA VII
# T11 construct: gene CA7; recombinant, obtained in-house
# hCA I [1] = biological target: T12, hCA I (Homo sapiens, UniProt P00915)
# T12 construct: gene CA1; recombinant, obtained in-house
# hCA I [2] = biological target: T12, hCA I; settings: CO2 1.7-17 mM, 20 mM Hepes pH 7.5, 20 mM Na2SO4, 15 min preincubation, room temperature; unreliable: table and text (69.8) disagree
# From the text: stopped-flow CO2 hydration on hCA I
# [3] = read-out: KI (μM)^a^,^b / hCA II
# [4] = read-out: KI (μM)^a^,^b / hCA XII^c
# [5] = read-out: KI (μM)^a^,^b / hCA I
# [6] = read-out: KI (μM)^a^,^b / hCA IX^c
# [7] = CO2 1.7-17 mM, 20 mM Hepes pH 7.5, 20 mM Na2SO4, 15 min preincubation, room temperature, read-out: KI (μM)^a^,^b / hCA I
# T2 sequence (P35218 39-305): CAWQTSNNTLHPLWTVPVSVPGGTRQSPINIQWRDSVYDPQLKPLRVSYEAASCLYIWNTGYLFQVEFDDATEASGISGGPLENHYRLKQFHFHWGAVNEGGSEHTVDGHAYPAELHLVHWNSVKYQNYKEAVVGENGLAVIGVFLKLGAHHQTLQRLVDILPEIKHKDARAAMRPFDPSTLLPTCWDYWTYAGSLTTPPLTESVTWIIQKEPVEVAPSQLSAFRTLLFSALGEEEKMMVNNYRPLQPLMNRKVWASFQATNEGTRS
# T6 sequence (P22748 19-284): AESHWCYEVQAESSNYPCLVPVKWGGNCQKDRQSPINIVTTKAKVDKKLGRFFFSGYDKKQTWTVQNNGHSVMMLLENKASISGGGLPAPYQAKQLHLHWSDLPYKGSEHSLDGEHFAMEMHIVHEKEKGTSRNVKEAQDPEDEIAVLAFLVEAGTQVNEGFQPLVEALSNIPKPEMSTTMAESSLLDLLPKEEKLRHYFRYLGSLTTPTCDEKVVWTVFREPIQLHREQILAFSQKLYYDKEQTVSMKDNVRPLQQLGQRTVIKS
# T4 sequence (P23280 18-308): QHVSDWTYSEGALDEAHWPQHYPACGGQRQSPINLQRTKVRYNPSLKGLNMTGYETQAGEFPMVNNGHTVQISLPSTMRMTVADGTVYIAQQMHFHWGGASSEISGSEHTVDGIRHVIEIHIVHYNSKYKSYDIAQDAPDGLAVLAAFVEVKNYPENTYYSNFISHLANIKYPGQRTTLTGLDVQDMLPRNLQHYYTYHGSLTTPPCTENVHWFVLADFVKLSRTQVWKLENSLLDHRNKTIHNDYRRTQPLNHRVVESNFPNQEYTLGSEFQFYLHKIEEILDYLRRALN
# T5 sequence (P07451 2-260): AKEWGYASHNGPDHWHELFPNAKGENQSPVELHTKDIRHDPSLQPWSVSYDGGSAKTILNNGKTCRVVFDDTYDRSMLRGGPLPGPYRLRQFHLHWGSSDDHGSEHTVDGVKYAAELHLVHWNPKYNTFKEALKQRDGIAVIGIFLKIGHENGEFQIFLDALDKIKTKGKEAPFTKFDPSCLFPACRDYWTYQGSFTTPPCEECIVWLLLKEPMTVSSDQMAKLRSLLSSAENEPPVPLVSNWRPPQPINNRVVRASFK
# T3 sequence (Q9D6N1 whole entry): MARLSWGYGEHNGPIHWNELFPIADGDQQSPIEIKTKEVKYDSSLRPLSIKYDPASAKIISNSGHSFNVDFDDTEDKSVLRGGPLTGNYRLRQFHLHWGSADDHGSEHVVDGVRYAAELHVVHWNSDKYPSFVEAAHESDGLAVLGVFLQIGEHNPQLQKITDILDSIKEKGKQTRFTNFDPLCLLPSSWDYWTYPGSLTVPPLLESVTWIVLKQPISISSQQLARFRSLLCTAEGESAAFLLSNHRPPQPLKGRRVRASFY
# T8 sequence (Q9ULX7 16-290 limits assumed): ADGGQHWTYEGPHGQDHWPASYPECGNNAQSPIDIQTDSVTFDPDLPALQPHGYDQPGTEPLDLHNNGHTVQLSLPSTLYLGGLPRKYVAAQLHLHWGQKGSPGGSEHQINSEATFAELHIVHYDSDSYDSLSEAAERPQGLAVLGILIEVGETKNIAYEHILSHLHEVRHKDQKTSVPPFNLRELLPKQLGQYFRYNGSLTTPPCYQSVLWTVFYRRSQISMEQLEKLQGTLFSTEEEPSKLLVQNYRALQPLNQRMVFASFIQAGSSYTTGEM
# T1 sequence (Q9Y2D0 34-317): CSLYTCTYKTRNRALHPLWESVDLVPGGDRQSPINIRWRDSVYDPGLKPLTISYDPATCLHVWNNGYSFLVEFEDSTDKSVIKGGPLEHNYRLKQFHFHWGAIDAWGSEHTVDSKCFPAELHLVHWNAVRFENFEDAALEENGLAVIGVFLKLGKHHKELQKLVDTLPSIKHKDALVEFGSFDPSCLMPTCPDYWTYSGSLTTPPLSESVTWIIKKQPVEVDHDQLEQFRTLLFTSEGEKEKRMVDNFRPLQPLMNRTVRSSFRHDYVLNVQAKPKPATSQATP
# T10 sequence (O43570 30-289 limits assumed): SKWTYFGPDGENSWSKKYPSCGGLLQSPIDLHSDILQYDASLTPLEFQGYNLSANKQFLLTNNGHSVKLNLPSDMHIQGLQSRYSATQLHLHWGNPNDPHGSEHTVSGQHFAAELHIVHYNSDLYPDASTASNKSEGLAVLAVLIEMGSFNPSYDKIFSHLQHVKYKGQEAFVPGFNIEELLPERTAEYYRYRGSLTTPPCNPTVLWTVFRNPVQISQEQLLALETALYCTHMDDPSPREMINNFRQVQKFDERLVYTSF
# T12 sequence (P00915 2-261): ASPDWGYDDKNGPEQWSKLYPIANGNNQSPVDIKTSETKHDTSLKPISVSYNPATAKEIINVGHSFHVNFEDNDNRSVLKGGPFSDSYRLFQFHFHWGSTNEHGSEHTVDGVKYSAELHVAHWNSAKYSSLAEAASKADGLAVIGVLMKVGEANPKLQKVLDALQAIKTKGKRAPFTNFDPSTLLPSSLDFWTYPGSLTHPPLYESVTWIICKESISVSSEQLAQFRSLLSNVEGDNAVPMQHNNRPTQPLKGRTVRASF
# T11 sequence (P43166 whole entry): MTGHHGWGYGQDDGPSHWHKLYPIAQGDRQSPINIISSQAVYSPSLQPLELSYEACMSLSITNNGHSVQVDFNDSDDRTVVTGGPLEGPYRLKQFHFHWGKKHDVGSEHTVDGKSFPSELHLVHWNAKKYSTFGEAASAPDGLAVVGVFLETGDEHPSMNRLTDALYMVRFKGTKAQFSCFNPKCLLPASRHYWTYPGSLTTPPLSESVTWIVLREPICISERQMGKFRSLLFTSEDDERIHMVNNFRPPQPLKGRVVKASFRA
Ki (hCA VB) [µM],Ki (hCA VA) [µM],Ki (hCA VI) [µM],Ki (hCA III) [µM],Ki (hCA IV) [µM],Ki (hCA XIV) [µM],Ki (hCA II; [3]) [µM],Ki (hCA XII; [4]) [µM],Ki (hCA VII) [µM],Ki (hCA I [1]; [5]) [µM],Ki (hCA IX; [6]) [µM],SMILES,other results
8.82,1.68,0.097,2.26,7.96,0.092,,,,,,"NS(=O)(=O)c1ccccc1 [compound 2, benzenesulphonamide]","Ki (mCA XIII): 0.1 µM; Ki (hCA IX; read-out: KI (μM)^a^,^b / hCA VI): 0.097 µM"
83.1,46.8,82.6,35.7,381,27,93.2,11.2,76.8,324,3.67,"NC(=O)c1ccccc1 [compound 7, carboxamide 7]",
,,,,,,,,,,,"NC(=O)Oc1ccccc1 [7a, carbamate 7a]",Ki (hCA II; read-out: hCA II): 110 µM; Ki (hCA XII; read-out: hCA XII): 2.81 µM; Ki (hCA I [1]; read-out: hCA I): 720 µM; Ki (hCA IX; read-out: hCA IX): 10.1 µM
57.3,89.1,89.9,37.3,111,10,341,28.5,72.2,72.5,57.5,"CONC(=O)c1ccccc1 [compound 10, methylated hydroxamate 10]",
10.7,6.7,27,5.72,39.5,1.57,8.96,8.32,9.56,> 1000,64.3,"CONS(=O)(=O)c1ccccc1 [compound 5, N-methoxysulphonamide 5]",
53.6,67.4,78.1,44.8,84.7,0.94,,,70.7,,,"O=C(NO)c1ccccc1 [compound 9, hydroxamic acid 9]","Ki (hCA II; CO2 1.7-17 mM, 20 mM Hepes pH 7.5, 20 mM Na2SO4, 15 min preincubation, room temperature, read-out: KI (μM)^a^,^b / hCA II): 179 µM; Ki (hCA I [1]; [7]): 83.1 µM; Ki (hCA IX; CO2 1.7-17 mM, 20 mM Hepes pH 7.5, 20 mM Na2SO4, 15 min preincubation, room temperature, read-out: KI (μM)^a^,^b / hCA IX^c): 45.9 µM"
95.2,7.75,74.4,6.28,78.4,3.81,5.31,2.42,8.56,,51.7,"NNS(=O)(=O)c1ccccc1 [compound 3, N-amino sulphonamide 3]","Ki (mCA XIII): 5.96 µM; KI (μM)^a^,^b / hCA I (hCA I [2]): 9.8 µM"
,,,,,,,,,,,"NS(=O)(=O)Nc1ccccc1 [2b, sulphamide 2b]",Ki (hCA IX; read-out: hCA IX): 0.071 µM
67.9,5.28,86.2,4.42,24.6,1.66,5.47,1.53,8.73,2.73,60.3,"O=S(=O)(NO)c1ccccc1 [compound 4, N-hydroxysulphonamide 4]",
79.8,80.9,8.8,6.63,9.1,8.79,9.3,6.45,7.93,8.65,9.55,"O=S(=O)(O)c1ccccc1 [compound 1, benzenesulphonic acid]",Ki (mCA XIII): 8.72 µM

SMILES,Ki (hCA VB) [µM],Ki (hCA VA) [µM],Ki (hCA VI) [µM],Ki (hCA III) [µM],Ki (hCA IV) [µM],Ki (hCA XIV) [µM],Ki (hCA II; [3]) [µM],Ki (hCA XII; [4]) [µM],Ki (hCA VII) [µM],Ki (hCA I [1]; [5]) [µM],Ki (hCA IX; [6]) [µM],other results
"NNC(=O)c1ccccc1 [compound 8, hydrazide 8]",75.9,59.3,63.5,40.2,335,0.99,231,45,76.7,91.2,48.4,
"O=C(O)c1ccccc1 [compound 6, benzoic acid]",9.6,7.12,91.6,35.7,434,0.98,30.1,20.4,92.2,,66.5,Ki (hCA I [1]; [7]): 730 µM
